Test results reported in publication PMC12040169 (PLOS Biology, 2025).

test: in vitro; conditions: human, hela cells, % viability

SMILES	viability at 28.5 h, 10 µM [%]
c1cnc2[nH]c([C@H]3CCCO3)c(CN3CCCCC3)c2c1 [CBK282284]	87.7
CC(=O)NCC(CN1CCOCC1)([N+](=O)[O-])[N+](=O)[O-] [CBK261337]	88.2
NCCSC1CC(=O)N(Cc2ccc(F)cc2)C1=O (centres unmarked) [CBK269025C]	101
Cc1cc(C(=O)N2CCC(Oc3nccn(Cc4ccc(S(C)(=O)=O)cc4)c3=O)CC2)ccc1Cl [CBK161883]	92.6
Cc1cc(C(=O)O)c(NC(=O)c2cccc(Cl)c2)s1 [CBK126813]	100
COc1ccc(-c2cc(C(=O)NCC3CCNCC3)cnc2-c2ccc(Cl)cc2)cn1 [CBK036700]	105
CC(=O)N1CCC2(C/C=C/C[C@H]3CN(C(=O)CC4CCOCC4)CC[C@H]3NC(=O)CNC2=O)CC1 [CBK292109]	98.8
CN(C)c1cccc(-c2cccc(NCC(c3cccnc3)N(C)C)n2)c1 (centres unmarked) [CBK037697]	117
CC(C)(C(=O)N1CCC(CC(=O)NCCc2ccccc2F)CC1)c1ccc(F)cc1 [CBK286497]	104
O=C(NCc1ccccn1)C(=O)N/N=C/c1ccccc1O [CBK262157]	85.4
Cc1cnn(CCCNC(=S)Nc2ccc(S(N)(=O)=O)cc2)c1 [CBK266957]	90.7
O=C1CCC(=O)N1 [CBK073851]	88.7
Cc1ccccc1-c1nc(S(=O)(=O)c2ccc(Cl)cc2)c(NCC2CCCO2)o1 (centres unmarked) [CBK267668]	113
CC1CCC(N(CCCN)Cc2ccco2)CC1C (centres unmarked) [CBK268947]	95.6
COc1ccc(C2=NN(c3ccc([N+](=O)[O-])cc3)C(=O)/C2=C\c2cccc(OC)c2OC)cc1 [CBK264475]	96
COc1cccc(C(=O)COC(=O)c2ccc3c(c2)C(=O)N(c2ccc(C(C)=O)cc2)C3=O)c1 [CBK264872]	84
CCCCN(C=O)c1c(CC)nc2ccc(C(=O)N3CCN(C)CC3)cn12 [CBK145707]	93.1
Cc1nc(S(=O)(=O)N2CCC(OCC3CC3)C2)cn1C (centres unmarked) [CBK304668]	102
O=C(NCCCn1ccnc1)c1cc2ncc(Br)cn2n1 [CBK277080]	97.6
C/C(=N\NC(=O)CSCc1ccccc1Br)c1cccc([N+](=O)[O-])c1 [CBK026344]	95.9
O=C(NCC1Cc2ccccc2O1)c1cccc(NC(=O)c2ccco2)c1 (centres unmarked) [CBK298302]	83.3
CC(=O)c1ccc(-c2cnc3[nH]c(=O)n([C@@H](C)c4ccccc4)c3n2)s1 [CBK064360]	98.3

SMILES	viability at 28.5 h, 10 µM [%]
COc1ccc([C@@]23CC[C@@H](NC(=O)Nc4c(F)cc(F)cc4Cl)C[C@@H]2N(C)CC3)cc1OC [CBK073740T]	112
N#Cc1c(Cl)cccc1Oc1ccc(S(=O)(=O)Nc2cccc(C(=O)O)c2)cc1 [CBK155718]	108
Cn1nc(C2CCN(C(=O)c3ccccc3F)CC2)c2cccnc21 [CBK285019]	106
N=c1n(CCN2CCCCC2)c2ccccc2n1CC(O)COc1ccccc1 (centres unmarked) [CBK262451C]	88.5
Cc1nnc(SCC(=O)N2CCCN(c3ccc(F)cc3)CC2)s1 [CBK306908]	88.7
CCOc1ccc(OCCC#N)cc1 [CBK015880]	84.7
O=C(NCCc1c[nH]c2ccc(Cl)cc12)c1ccc(Cl)cc1Br [CBK159755]	96.3
Cc1nn(C)cc1-c1cncn1C(CCN(C)C)c1ccccc1 (centres unmarked) [CBK281987]	92.3
O=C(O)c1cc(NC(=O)C(c2ccccc2)c2ccccc2)cc(C(=O)O)c1 [CBK261191]	93.2
COCCNc1nc(-c2ccsc2)ccc1C(=O)N1CCN(C)CC1 [CBK105948]	112
C(=N/OCc1ccccc1)/c1c[nH]c2ccccc12 [CBK168629]	79.3
COc1ccc(C(C)C)cc1-c1cncc(N2CCCCC2CCO)n1 (centres unmarked) [CBK037897]	94.4
CCOc1ccc(-c2cncc(N3CCC(C(=O)O)CC3)n2)cc1 [CBK065870]	97.2
O=C(CCCc1ccccn1)N(Cc1ccccn1)C1CCCC1 [CBK282033]	99.9
CCN(CC)CCN1CCN(c2cncc(-c3ccc(F)cc3F)n2)CC1 [CBK065668]	107
CC(C)c1nccn1CCCNC(=O)N1CCCC(c2ccncn2)C1 (centres unmarked) [CBK307448]	88.7
O=C(O)c1cc(-c2cccc(O)c2)nc2ccc(Br)cc12 [CBK261777]	97.9
O=C1c2ccccc2C(=O)N1CN(CCc1ccc(Cl)cc1)CN1C(=O)c2ccccc2C1=O [CBK225934]	90.8
COc1ccc(NC(=O)Cc2csc(NC(=O)c3ccco3)n2)c(OC)c1 [CBK287649]	91.7
CC(C)(C)OC(=O)N1CCCC(NCc2ccccn2)CC1 (centres unmarked) [CBK305128]	106
Fc1ccc(CSc2nnc(-c3ccccn3)[nH]2)cc1 [CBK270074]	85.8
O=C(NCc1ccc(-c2nc3ncccc3o2)cc1)c1ccc(F)cc1 [CBK270182]	91.3

SMILES	viability at 28.5 h, 10 µM [%]
C=C1C2(C(=O)N3CCC(Oc4cccnc4)CC3)CCC(C2)C1(C)C (centres unmarked) [CBK282082]	107
COc1ccc(-c2cc(C(=O)Nc3ccc(CCO)cc3)cnc2-c2cccc(C)c2)cn1 [CBK037461]	91.8
COC(=O)CCC1(C)CN(C)CCC1=O (centres unmarked) [CBK028494]	85
O=S(=O)(c1ccccc1)C1CCCCO1 (centres unmarked) [CBK020284]	91.3
O=C(Cn1nnc(-c2ccccc2)n1)Nc1ccccc1C(=O)O [CBK264358]	103
CC(C)[C@H](CO)Nc1nc(-c2ccc(N3CCOCC3)cc2)cn2ccnc12 [CBK066151]	108
CC1(C)OC(=O)C(=CNC(CCC(=O)O)C(=O)O)C(=O)O1 (centres unmarked) [CBK263510]	97.3
c1ccc(C2=NN=C(N3CCOCC3)SC2)cc1 [CBK006876G]	97.3
NS(=O)(=O)c1cc(C(=O)OCCNC(=O)c2ccccc2)c(Cl)cc1Cl [CBK265193]	88.9
O=C(CCN1C(=O)COc2ccccc21)NCCCN1CCN(c2ccccc2F)CC1 [CBK294469]	102
O=C(N[C@H]1CCN2C(=O)c3cc(-c4ccsc4)ccc3NC(=O)[C@H]12)c1cccc(F)c1 [CBK289339]	92.6
O=C1CCC[C@]2(CN(C(=O)C3CC3)C[C@H]2c2ccccc2F)N1 [CBK283357]	106
CCc1ccccc1S(=O)(=O)N1CCOC(c2cnn(CC)c2)C1 (centres unmarked) [CBK305421]	94.8
CCNC(=O)Nc1nc2cccnc2cc1-c1ccc(OC)c(C)c1 [CBK081241]	94.6
Cc1ncc(CO)c(/C=N/N=C/c2ccc(O)c(O)c2)c1O [CBK265075]	103
CCc1nc2cc(NC(=O)CCCn3ccnc3C)ccc2n1CC [CBK281609]	101
COc1cc(C)c(Nc2cc(-c3ccc(CC(C)C)cc3)ncn2)cc1OC [CBK090785]	91.2
CCOC(=O)c1[nH]c2ccccc2c1NS(=O)(=O)c1cccc(Cl)c1C [CBK047423]	88.9
CCn1cc(CN(CCO)C(=O)c2cccc(C#N)c2C)cn1 [CBK304196]	109
O=C(O)CCCn1cc(NC(=O)c2ccc(Br)o2)cn1 [CBK270042]	106
Cc1ccc(O)c(NC(=O)c2ccccc2-c2ccccc2C(=O)O)c1 [CBK266763]	82.9
O=C(Cn1c(C2CCCNC2)cc2cccnc21)NC1CCCC1 (centres unmarked) [CBK285059]	97.5

SMILES	viability at 28.5 h, 10 µM [%]
CCN1CCCC1CNC(=O)c1cc(Br)cnc1N(C)S(C)(=O)=O (centres unmarked) [CBK076520]	93.5
Cc1ccn(CCNC(=O)c2cc(-c3cccs3)no2)n1 [CBK282679]	78.9
O=S(=O)(Nc1ccccc1OC(F)(F)F)c1ccc(N2CCNCC2)c2ccccc12 [CBK003933C]	92.8
CCN(CC)C(=O)CN1CC=C(c2ccc(C)o2)CC1 [CBK283497]	100
CSc1nc(NC(=O)c2cc(-c3ccccc3)oc2C)cc(N2CCNCC2)n1 [CBK050364T]	89.9
Cc1ccc(S(=O)(=O)NCCSCc2cccc(Cl)c2)cc1[N+](=O)[O-] [CBK264116]	93.4
Cc1ccc(CN2C[C@@H]3CC[C@@](O)(c4ncccc4C)[C@@H]3C2)o1 [CBK285361]	82.6
COc1ccc(CNC(=O)c2cc(O)nc3ccccc23)cc1OC [CBK296763]	90.2
O=C(NC(/C=C/c1ccccc1)c1cc([N+](=O)[O-])c2cccnc2c1O)C1CCCCC1 (centres unmarked) [CBK265333]	93
COc1ccnc(Cn2ncc(N3CCCC3)cc2=O)c1 [CBK304379]	87.5
CCNC(=O)N1CC2(CCN(CCc3cccc4ccccc34)CC2)c2ccccc21 [CBK136965]	94.7
CCCS(=O)(=O)Nc1nccnc1-c1cccs1 [CBK050763]	89.4
O=C(CSCCO)Nc1cccc2ccccc12 [CBK265623]	85.4
O=C(O)/C=C\C(=O)Nc1ccc(Cl)c(NC(=O)Cc2ccccc2)c1 [CBK263955]	93.7
COc1ccc(-c2csc(/C(C#N)=C/Nc3ccc(S(=O)(=O)Nc4nccs4)cc3)n2)cc1 [CBK262374]	94.6
CCC(=O)N(C)C(CO)c1cc(OC)ccc1Br (centres unmarked) [CBK304156]	95.9
O=C(Cc1ccc2c(c1)CCCC2)Nc1cccc(-c2nnn[nH]2)c1 [CBK297129]	114
COc1cccc2sc(NC(=O)CCCN(C)C)nc12 [CBK149261]	93
FC(F)(F)c1cccnc1OCCOc1ccc(Cl)cc1 [CBK116621]	90.5
CC(C)N1CCC(N(C)Cc2c[nH]nc2C(C)(C)C)CC1 [CBK283002]	92.9
CNc1nc(NCCc2cnc(=O)n(C)c2O)cc(C2CCOC2)n1 (centres unmarked) [CBK307156]	105

same assay, conditions: human, hela cells, % viability, bulk resorufin, single well

SMILES	viability at 28.5 h, 10 µM [%]
COc1ccc(C(=O)Nc2ccc3c(c2)COC2(CCNCC2)O3)c(OC)n1 [CBK091528T]	87.5
c1ccc(-c2cccc3c2OC2(CCNCC2)OC3)cc1 [CBK061589]	105
